In publication PMC6315490, “Angucycline Glycosides from an Intertidal Sediments Strain Streptomyces sp. and Their Cytotoxic Activity against Hepatoma Carcinoma Cells” (Marine Drugs, 2018):
Entries after “also recorded” stand apart in the source; their conditions may differ.

tested on: hepatoma carcinoma SMMC-7721 cells; assay: MTT cytotoxicity assay, SMMC-7721; assay type: cell-based; conditions: Homo sapiens, MTT method
Procedure: (§1) Though, the distinct in vivo toxicity restricted the further development of these compounds to be clinical drugs. Recently, an atypical angucycline, lomaiviticin A, was reported to be under preclinical evaluation for antitumor treatment due to its prominent cytotoxicity and effects of inducing double-strand breaks in DNA [14, 23]. In present work, 1–4 were assayed for their cytotoxic activity against normal liver cell LO2, hepatoma carcinoma HepG-2, SMMC-7721 and plc-prf-5 cell lines by 3-(4,5-dimethylthiazol-2-yl)-2,5-diphenyltetrazolium bromide (MTT) method (Table 2).
(§2) The cytotoxicity evaluations of 1–4 against normal liver cell and hepatoma carcinoma cells were carried out using the 3-(4,5-dimethylthiazole-2-yl)-2,5-diphenyltetrazolium bromide (MTT) assay. Doxorubicin was used as positive control drug and deionized H2O with the same DMSO concentration was used as parallel control. DAPI staining test was employed to qualitatively observe apoptosis, and the apoptotic ratio was measured by flow cytometric analysis (Becton Dickinson FACScan, San Jose, CA, USA). These tests were conducted using the methods as previously described.

Question: With `Cc1cc(O)c2c3c(cc(O)c2c1)C(=O)c1c(ccc(C2CC4OC5CC(=O)C(C)OC5OC4C(C)O2)c1O)C3=O` (stereo not shown) [Compound 1, landomycin N] as the compound, how does the IC50 read?
Answer: > 40 µM

Question: For `Cc1cc(O)c2cc3c(c(O)c2c1)C(=O)c1ccc(C2CC4OC5CC(=O)C(C)OC5OC4C(C)O2)c(O)c1C3=O` (stereo not shown) [Compound 2, galtamycin C], which IC50 is on record?
Answer: > 40 µM

Question: For `CC1OC(OC2CCC(OC(C)(CC(=O)O)Cc3ccc4c(c3O)C(=O)c3ccc(C5CC6OC7CC(=O)C(C)OC7OC6C(C)O5)c(O)c3C4=O)OC2C)C=CC1=O` (stereo not shown) [Compound 3, vineomycin D], which IC50 is on record?
Answer: > 40 µM

Question: Which IC50 does the source give for `CC1OC(OC2CCC(OC3(C)CC(=O)C4(O)C5=C(C=CC4(O)C3)C(=O)c3c(ccc(C4CC6OC7CC(=O)C(C)OC7OC6C(C)O4)c3O)C5=O)OC2C)C=CC1=O` (stereo not shown) [Compound 4, saquayamycin B] here?
Answer: 0.033 ± 0.005 µM

Question: For `COc1cccc2c1C(=O)c1c(O)c3c(c(O)c1C2=O)C[C@@](O)(C(=O)CO)C[C@@H]3O[C@H]1C[C@H](N)[C@H](O)[C@H](C)O1` [Doxorubicin, reference compound], which IC50 is on record?
Answer: 0.706 ± 0.004 µM

tested on: SMMC-7721 cells; assay: DAPI staining test for apoptosis; assay type: cell-based; conditions: 0.025 to 0.100 μM for 24 h
Procedure: as §1
(§3) Figure 5 (a) Fluorescence micrographs of untreated and saquayamycin B-treated SMMC-7721 cells (24 h) stained with DAPI, Magnification: 100×; (b) Quantification of saquayamycin B-induced apoptosis in SMMC-7721 cell using flow cytometric analysis. ** p < 0.01 versus saquayamycin B 0 μM group. […]
(§4) The cytotoxicity evaluations of 1–4 against normal liver cell and hepatoma carcinoma cells were carried out using the 3-(4,5-dimethylthiazole-2-yl)-2,5-diphenyltetrazolium bromide (MTT) assay. […] DAPI staining test was employed to qualitatively observe apoptosis, and the apoptotic ratio was measured by flow cytometric analysis (Becton Dickinson FACScan, San Jose, CA, USA). […]

Question: Which “Apoptosis by morphological characteristics in DAPI staining” value does the source give for `CC1OC(OC2CCC(OC3(C)CC(=O)C4(O)C5=C(C=CC4(O)C3)C(=O)c3c(ccc(C4CC6OC7CC(=O)C(C)OC7OC6C(C)O4)c3O)C5=O)OC2C)C=CC1=O` (stereo not shown) [Compound 4, saquayamycin B] here?
Answer: chromatin dispersion and formation of apoptotic body; also recorded: induced apoptosis in SMMC-7721 cells

tested on: hepatoma carcinoma HepG-2 cells; assay: MTT cytotoxicity assay, HepG-2; assay type: cell-based; conditions: Homo sapiens, HepG2, MTT method
Procedure: as §1, §2

Question: Which IC50 does the source give for `Cc1cc(O)c2c3c(cc(O)c2c1)C(=O)c1c(ccc(C2CC4OC5CC(=O)C(C)OC5OC4C(C)O2)c1O)C3=O` (stereo not shown) [Compound 1, landomycin N] here?
Answer: > 40 µM

Question: Which IC50 does the source give for `Cc1cc(O)c2cc3c(c(O)c2c1)C(=O)c1ccc(C2CC4OC5CC(=O)C(C)OC5OC4C(C)O2)c(O)c1C3=O` (stereo not shown) [Compound 2, galtamycin C] here?
Answer: > 40 µM

Question: For `CC1OC(OC2CCC(OC(C)(CC(=O)O)Cc3ccc4c(c3O)C(=O)c3ccc(C5CC6OC7CC(=O)C(C)OC7OC6C(C)O5)c(O)c3C4=O)OC2C)C=CC1=O` (stereo not shown) [Compound 3, vineomycin D], which IC50 is on record?
Answer: > 40 µM

Question: With `CC1OC(OC2CCC(OC3(C)CC(=O)C4(O)C5=C(C=CC4(O)C3)C(=O)c3c(ccc(C4CC6OC7CC(=O)C(C)OC7OC6C(C)O4)c3O)C5=O)OC2C)C=CC1=O` (stereo not shown) [Compound 4, saquayamycin B] as the compound, how does the IC50 read?
Answer: 0.135 ± 0.056 µM

Question: With `COc1cccc2c1C(=O)c1c(O)c3c(c(O)c1C2=O)C[C@@](O)(C(=O)CO)C[C@@H]3O[C@H]1C[C@H](N)[C@H](O)[C@H](C)O1` [Doxorubicin, reference compound] as the compound, how does the IC50 read?
Answer: 0.919 ± 0.599 µM

tested on: hepatoma carcinoma plc-prf-5 cells; assay: MTT cytotoxicity assay, plc-prf-5; assay type: cell-based; conditions: Homo sapiens, MTT method
Procedure: as §1, §2

Question: Which IC50 does the source give for `Cc1cc(O)c2c3c(cc(O)c2c1)C(=O)c1c(ccc(C2CC4OC5CC(=O)C(C)OC5OC4C(C)O2)c1O)C3=O` (stereo not shown) [Compound 1, landomycin N] here?
Answer: > 40 µM

Question: With `Cc1cc(O)c2cc3c(c(O)c2c1)C(=O)c1ccc(C2CC4OC5CC(=O)C(C)OC5OC4C(C)O2)c(O)c1C3=O` (stereo not shown) [Compound 2, galtamycin C] as the compound, how does the IC50 read?
Answer: > 40 µM

Question: With `CC1OC(OC2CCC(OC(C)(CC(=O)O)Cc3ccc4c(c3O)C(=O)c3ccc(C5CC6OC7CC(=O)C(C)OC7OC6C(C)O5)c(O)c3C4=O)OC2C)C=CC1=O` (stereo not shown) [Compound 3, vineomycin D] as the compound, how does the IC50 read?
Answer: > 40 µM

Question: For `CC1OC(OC2CCC(OC3(C)CC(=O)C4(O)C5=C(C=CC4(O)C3)C(=O)c3c(ccc(C4CC6OC7CC(=O)C(C)OC7OC6C(C)O4)c3O)C5=O)OC2C)C=CC1=O` (stereo not shown) [Compound 4, saquayamycin B], which IC50 is on record?
Answer: 0.244 ± 0.001 µM

Question: For `COc1cccc2c1C(=O)c1c(O)c3c(c(O)c1C2=O)C[C@@](O)(C(=O)CO)C[C@@H]3O[C@H]1C[C@H](N)[C@H](O)[C@H](C)O1` [Doxorubicin, reference compound], which IC50 is on record?
Answer: 1.03 ± 0.99 µM

tested on: SMMC-7721 cells; assay: Flow cytometric analysis of apoptosis; assay type: cell-based; conditions: Figure 5b
Procedure: as §1, §3, §4

Question: Which “Apoptotic ratio of SMMC-7721 cells (flow cytometry), concentration dependence” value does the source give for `CC1OC(OC2CCC(OC3(C)CC(=O)C4(O)C5=C(C=CC4(O)C3)C(=O)c3c(ccc(C4CC6OC7CC(=O)C(C)OC7OC6C(C)O4)c3O)C5=O)OC2C)C=CC1=O` (stereo not shown) [Compound 4, saquayamycin B] here?
Answer: dependent on the concentrations of saquayamycin B

tested on: not listed separately; assay: MTT cytotoxicity assay, normal liver cell LO2; assay type: cell-based; conditions: human; MTT method; LO2 normal liver cells
Procedure: as §1, §2

Question: With `Cc1cc(O)c2c3c(cc(O)c2c1)C(=O)c1c(ccc(C2CC4OC5CC(=O)C(C)OC5OC4C(C)O2)c1O)C3=O` (stereo not shown) [Compound 1, landomycin N] as the compound, how does the IC50 read?
Answer: > 40 µM

Question: Which IC50 does the source give for `Cc1cc(O)c2cc3c(c(O)c2c1)C(=O)c1ccc(C2CC4OC5CC(=O)C(C)OC5OC4C(C)O2)c(O)c1C3=O` (stereo not shown) [Compound 2, galtamycin C] here?
Answer: > 40 µM

Question: With `CC1OC(OC2CCC(OC(C)(CC(=O)O)Cc3ccc4c(c3O)C(=O)c3ccc(C5CC6OC7CC(=O)C(C)OC7OC6C(C)O5)c(O)c3C4=O)OC2C)C=CC1=O` (stereo not shown) [Compound 3, vineomycin D] as the compound, how does the IC50 read?
Answer: > 40 µM

Question: Which IC50 does the source give for `CC1OC(OC2CCC(OC3(C)CC(=O)C4(O)C5=C(C=CC4(O)C3)C(=O)c3c(ccc(C4CC6OC7CC(=O)C(C)OC7OC6C(C)O4)c3O)C5=O)OC2C)C=CC1=O` (stereo not shown) [Compound 4, saquayamycin B] here?
Answer: 0.343 ± 0.081 µM

Question: With `COc1cccc2c1C(=O)c1c(O)c3c(c(O)c1C2=O)C[C@@](O)(C(=O)CO)C[C@@H]3O[C@H]1C[C@H](N)[C@H](O)[C@H](C)O1` [Doxorubicin, reference compound] as the compound, how does the IC50 read?
Answer: 2.26 ± 0.16 µM
